{
  "source": "ChEMBL document CHEMBL2016526",
  "about": "“3-(N-arylsulfamoyl)benzamides, inhibitors of human sirtuin type 2 (SIRT2)” (Bioorg Med Chem Lett, 2012)",
  "key": {"[1]": {"molecular_target": "T1, NAD-dependent protein deacetylase sirtuin-1 (Homo sapiens) (UniProt Q96EB6)", "T1 sequence (whole entry)": "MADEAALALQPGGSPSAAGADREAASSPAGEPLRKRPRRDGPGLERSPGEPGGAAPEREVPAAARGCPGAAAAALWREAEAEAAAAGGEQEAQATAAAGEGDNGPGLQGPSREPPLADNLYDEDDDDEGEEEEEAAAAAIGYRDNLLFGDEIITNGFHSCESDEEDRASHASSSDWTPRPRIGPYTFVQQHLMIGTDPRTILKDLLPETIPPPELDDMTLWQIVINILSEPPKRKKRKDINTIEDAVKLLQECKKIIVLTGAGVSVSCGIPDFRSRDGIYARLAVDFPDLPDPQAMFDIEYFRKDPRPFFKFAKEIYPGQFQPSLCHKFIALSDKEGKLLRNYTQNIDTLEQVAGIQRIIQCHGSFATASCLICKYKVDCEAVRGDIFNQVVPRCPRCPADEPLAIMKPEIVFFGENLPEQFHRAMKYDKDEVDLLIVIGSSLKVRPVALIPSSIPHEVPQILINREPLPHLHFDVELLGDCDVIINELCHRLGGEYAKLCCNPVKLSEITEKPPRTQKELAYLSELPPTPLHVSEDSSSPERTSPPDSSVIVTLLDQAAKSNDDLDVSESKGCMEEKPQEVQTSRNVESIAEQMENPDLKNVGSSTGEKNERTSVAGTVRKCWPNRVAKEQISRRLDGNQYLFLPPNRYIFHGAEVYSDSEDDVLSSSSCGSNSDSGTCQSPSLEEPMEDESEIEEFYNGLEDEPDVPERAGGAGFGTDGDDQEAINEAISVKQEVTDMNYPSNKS", "assay": "Inhibition of recombinant SIRT1 assessed as lysine deacetylation at 10 uM"}, "[2]": {"molecular_target": "T2, NAD-dependent protein deacetylase sirtuin-2 (Homo sapiens) (UniProt Q8IXJ6)", "T2 sequence (whole entry)": "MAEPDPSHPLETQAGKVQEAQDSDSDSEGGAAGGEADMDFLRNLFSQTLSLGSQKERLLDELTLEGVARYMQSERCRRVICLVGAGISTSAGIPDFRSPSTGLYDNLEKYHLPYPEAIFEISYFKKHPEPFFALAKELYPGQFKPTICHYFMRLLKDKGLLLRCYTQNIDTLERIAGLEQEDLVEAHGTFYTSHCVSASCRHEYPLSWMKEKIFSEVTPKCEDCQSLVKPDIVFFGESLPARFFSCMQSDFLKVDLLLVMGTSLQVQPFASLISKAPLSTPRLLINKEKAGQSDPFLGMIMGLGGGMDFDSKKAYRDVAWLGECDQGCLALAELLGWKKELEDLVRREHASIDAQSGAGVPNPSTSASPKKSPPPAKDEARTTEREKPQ", "assay": "Inhibition of recombinant SIRT2 assessed as lysine deacetylation at 1 to 50 uM"}, "[3]": {"molecular_target": "T3, NAD-dependent protein deacetylase sirtuin-3, mitochondrial (Homo sapiens) (UniProt Q9NTG7)", "T3 sequence (whole entry)": "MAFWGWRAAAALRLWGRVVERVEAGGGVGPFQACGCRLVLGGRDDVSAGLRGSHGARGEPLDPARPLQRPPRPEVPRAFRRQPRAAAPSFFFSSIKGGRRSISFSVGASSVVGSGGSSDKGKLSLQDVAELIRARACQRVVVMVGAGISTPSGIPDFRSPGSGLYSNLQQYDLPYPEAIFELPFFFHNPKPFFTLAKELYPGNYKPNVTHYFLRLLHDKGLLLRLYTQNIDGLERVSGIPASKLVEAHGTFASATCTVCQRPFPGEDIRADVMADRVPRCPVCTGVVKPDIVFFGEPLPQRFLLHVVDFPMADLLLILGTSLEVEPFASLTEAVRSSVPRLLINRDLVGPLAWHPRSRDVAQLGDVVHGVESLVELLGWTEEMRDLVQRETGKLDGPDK", "assay": "Inhibition of recombinant SIRT3 assessed as lysine deacetylation at 10 uM relative to control"}, "[4]": {"molecular_target": "T2, NAD-dependent protein deacetylase sirtuin-2 (Homo sapiens)", "assay": "Inhibition of recombinant SIRT2 assessed as lysine deacetylation at 50 uM relative to control", "design": "scale not given: the % may be the effect or the level left"}, "[5]": {"molecular_target": "T2, NAD-dependent protein deacetylase sirtuin-2 (Homo sapiens)", "assay": "Inhibition of recombinant SIRT2 assessed as lysine deacetylation at 25 uM relative to control", "design": "scale not given: the % may be the effect or the level left"}, "[6]": {"molecular_target": "T2, NAD-dependent protein deacetylase sirtuin-2 (Homo sapiens)", "assay": "Inhibition of recombinant SIRT2 assessed as lysine deacetylation at 10 uM relative to control", "design": "scale not given: the % may be the effect or the level left"}, "[7]": {"molecular_target": "T3, NAD-dependent protein deacetylase sirtuin-3, mitochondrial (Homo sapiens)", "assay": "Inhibition of recombinant SIRT3 assessed as lysine deacetylation up to 50 uM"}, "[8]": {"molecular_target": "T2, NAD-dependent protein deacetylase sirtuin-2 (Homo sapiens)", "assay": "Inhibition of recombinant SIRT2 assessed as lysine deacetylation at 6.25 to 25 uM"}, "[9]": {"molecular_target": "T1, NAD-dependent protein deacetylase sirtuin-1 (Homo sapiens)", "assay": "Inhibition of recombinant SIRT1 assessed as lysine deacetylation up to 50 uM"}},
  "note": "Active and inactive are the calls of the source. The calls are words filed in the database; no cut-off is given here.",
  "data": [
    {"smiles": "CN(C(=O)c1cccc(S(=O)(=O)N(C)c2ccc(Cl)cc2)c1)c1ccc(Cl)cc1", "values": [
      {"measurement": "inhibition", "setting": "[1]", "result": "inactive"},
      {"measurement": "inhibition", "setting": "[2]", "result": "Active"},
      {"measurement": "inhibition", "setting": "[3]", "result": 5, "unit": "%"}
    ]},
    {"smiles": "CN(C(=O)c1cccc(S(=O)(=O)N(C)c2ccc(Br)cc2)c1)c1ccc(F)cc1", "values": [
      {"measurement": "Activity", "setting": "[4]", "result": 57, "unit": "%"}
    ]},
    {"smiles": "O=C(Nc1ccc(Br)cc1)c1cccc(S(=O)(=O)N(Cc2ccccc2)c2ccc(Br)cc2)c1", "values": [
      {"measurement": "Activity", "setting": "[5]", "result": 80, "unit": "%"}
    ]},
    {"smiles": "CN(C(=O)c1cccc(S(=O)(=O)N(C)c2ccc(C(F)(F)F)cc2)c1)c1ccc(Br)cc1", "values": [
      {"measurement": "inhibition", "setting": "[1]", "result": "inactive"},
      {"measurement": "Activity", "setting": "[6]", "result": 55, "unit": "%"},
      {"measurement": "inhibition", "setting": "[3]", "result": "inactive"}
    ]},
    {"smiles": "CN(C(=O)c1cccc(S(=O)(=O)N(C)c2ccc(Br)cc2)c1)c1ccc(Cl)cc1", "values": [
      {"measurement": "inhibition", "setting": "[1]", "result": "inactive"},
      {"measurement": "Activity", "setting": "[6]", "result": 54, "unit": "%"},
      {"measurement": "inhibition", "setting": "[2]", "result": "Active"},
      {"measurement": "inhibition", "setting": "[3]", "result": "inactive"}
    ]},
    {"smiles": "CN(c1ccc(Br)cc1)S(=O)(=O)c1cccc(C(=O)Nc2ccc(Br)cc2)c1", "values": [
      {"measurement": "inhibition", "setting": "[7]", "result": "inactive"},
      {"measurement": "Activity", "setting": "[5]", "result": 56, "unit": "%"},
      {"measurement": "inhibition", "setting": "[8]", "result": "Active"},
      {"measurement": "inhibition", "setting": "[9]", "result": "inactive"}
    ]},
    {"smiles": "O=C(Nc1ccc(Br)cc1)c1cccc(S(=O)(=O)Nc2ccc(Br)cc2)c1", "values": [
      {"measurement": "Activity", "setting": "[5]", "result": 85, "unit": "%"}
    ]},
    {"smiles": "CCN(c1ccc(Br)cc1)S(=O)(=O)c1cccc(C(=O)Nc2ccc(Br)cc2)c1", "values": [
      {"measurement": "Activity", "setting": "[5]", "result": 82, "unit": "%"}
    ]},
    {"smiles": "C=CCN(c1ccc(Br)cc1)S(=O)(=O)c1cccc(C(=O)Nc2ccc(Br)cc2)c1", "values": [
      {"measurement": "Activity", "setting": "[5]", "result": 92, "unit": "%"}
    ]},
    {"smiles": "CN(C(=O)c1cccc(S(=O)(=O)N(C)c2ccc(Cl)cc2)c1)c1ccc(Br)cc1", "values": [
      {"measurement": "Activity", "setting": "[6]", "result": 72, "unit": "%"}
    ]},
    {"smiles": "CN(C(=O)c1cccc(S(=O)(=O)N(C)c2ccc(Br)cc2)c1)c1ccc(Br)cc1", "values": [
      {"measurement": "inhibition", "setting": "[7]", "result": "inactive"},
      {"measurement": "inhibition", "setting": "[8]", "result": "Active"},
      {"measurement": "inhibition", "setting": "[9]", "result": "inactive"},
      {"measurement": "inhibition", "setting": "[2]", "result": "Active"}
    ]},
    {"smiles": "CN(C(=O)c1cccc(S(=O)(=O)N(C)c2ccc(Br)cc2)c1)c1ccc(C(F)(F)F)cc1", "values": [
      {"measurement": "Activity", "setting": "[4]", "result": 76, "unit": "%"}
    ]},
    {"smiles": "O=C(Nc1cccc([N+](=O)[O-])c1)c1cccc(S(=O)(=O)N2CCCCCC2)c1", "values": [
      {"measurement": "inhibition", "setting": "[9]", "result": "Active"}
    ]}
  ]
}
